In data set [1] the test system is Escherichia coli strain ATCC25922. Kind of data set: Standard microdilution MIC assay, E. coli. The format is cell-based. In a few lines:
(§1)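 Broth microdilution per CLSI M7-A8 guidelines, with reference-strain quality control run in the same design; MIC determined per strain. Activity scored +/− against a 16 micrograms/mL cutoff.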
In general terms: Broth dilution looks for growth in wells or tubes with falling amounts of substance.

A short description of data set [2]: Rat five day safety study (bodyweight gain, reticulocyte count change). The format is in vivo. The conditions noted are these: male Sprague-Dawley juvenile rats, n=5, once daily slow intravenous infusion for 5 days at or near maximum-tolerated dose; for BW Result: bodyweight gain; for Hematology Result: reticulocyte count change. The protocol: The compounds of the present disclosure were tested for safety in a multi-day dosing study in rat. Key parameters that were monitored are bodyweight gain and hematological changes, particularly changes in reticulocyte counts. Male Sprague-Dawley (CD) juvenile rats were received from Charles River with double jugular vein catheters. For each compound, n=5. […] Bodyweights were recorded daily for the first 5 days (during the dosing period), then 2 to 3 times per week thereafter. Blood was collected via a jugular vein catheter into EDTA anti-coagulated tubes for complete blood counts (CBC) on Days 0 (baseline), 3 and 7. On Day 22, blood was drawn via a cardiac puncture into EDTA coated tubes for final CBC, and serum separator tubes for the complete clinical chemistry profile. The blood that was collected into serum separator tubes was allowed to clot at room temperature for approximately 30 minutes, spun in a centrifuge at 2000 rpm, and the resulting serum was aliquoted. All samples were sent on wet ice to Charles River Labs for analysis.

Data set [3] deals with Staphylococcus aureus (S. aureus) 11540 strain. Kind of data set: Standard microdilution MIC assay, S. aureus. The format is cell-based. In a few lines:
as §1

One may read the MIC as the smallest concentration in the dilution series that meets the test's criterion for growth inhibition.

Take `C=C[C@@H](CCNC(=N)CF)NCc1ccc(-n2cc3cc(-c4cc(CCC[C@H](C)N)cc(Cl)c4F)[nH]c3nc2=O)cc1` [Compound 23]: the MIC in data set [1] and in data set [3] was at most 16 µg/mL throughout. The “BW Result” value in data set [2] is reported as “+ (a “+” in “BW result” indicates that the rat exhibited a weight gain of 20% or more)”. Further, the “Hematology Result” value in data set [2] is “+ (a “+” in “Hematology result” indicates indicates that the rat exhibited a reticulocyte count change of 65% or less)”.

Consider `CCCN1[C@H](CCNC(C)=N)CCC[C@H]1c1ccc(-n2cc3cc(-c4cc(CCC[C@H](C)N)cc(Cl)c4F)[nH]c3nc2=O)cc1` [Compound 360], for which the MIC in data set [1] and in data set [3] was at most 16 µg/mL throughout. In addition, the “BW Result” value in data set [2] is reported as “+ (a “+” in “BW result” indicates that the rat exhibited a weight gain of 20% or more)”. Also, in data set [2], the “Hematology Result” value is recorded as “+ (a “+” in “Hematology result” indicates indicates that the rat exhibited a reticulocyte count change of 65% or less)”.

`CC(=N)NCC[C@@H]1CCC[C@@H](c2ccc(-n3cc4cc(-c5cc(CCC[C@H](C)N)c(C(F)(F)F)cc5F)[nH]c4nc3=O)cc2)N1` [Compound 317]: the MIC in data set [1] and in data set [3] was at most 16 µg/mL in each case. Moreover, the “BW Result” value in data set [2] is recorded as “− (a “−” indicates that the rat exhibited a weight gain of less than 20%)”. Also, the “Hematology Result” value in data set [2] is on record as “− (a “−” indicates indicates that the rat exhibited a reticulocyte count change of greater than 65%)”.

`CC(=N)NCC[C@@H](NCc1ccc(-n2cc3cc(-c4cc(CCC[C@H](C)N)cc(Cl)c4F)[nH]c3nc2=O)cc1)C1CC1` [Compound 119] returned an MIC in data set [1] of at most 16 µg/mL. In data set [2], the “BW Result” value is reported as “− (a “−” indicates that the rat exhibited a weight gain of less than 20%)” and the “Hematology Result” value is recorded as “− (a “−” indicates indicates that the rat exhibited a reticulocyte count change of greater than 65%)”. This compound also yielded an MIC in data set [3] of at most 16 µg/mL.

With `CC(=N)NCC[C@@H]1CCC[C@@H](c2ccc(-n3cc4cc(-c5cc(CCC[C@H](C)N)cc(Cl)c5F)[nH]c4nc3=O)cc2)N1CCCF` [Compound 264], the MIC in data set [1] is at most 16 µg/mL. In addition, in data set [2], the “BW Result” value is “+ (a “+” in “BW result” indicates that the rat exhibited a weight gain of 20% or more)” and the “Hematology Result” value is on record as “+ (a “+” in “Hematology result” indicates indicates that the rat exhibited a reticulocyte count change of 65% or less)”. For the same compound, the minimum inhibitory concentration (MIC) in data set [3] is at most 16 µg/mL.

With `CC(=N)NCC[C@@H]1CCC[C@@H](c2ccc(-n3cc4cc(-c5cc(CCC[C@@H](N)CO)cc(Cl)c5F)[nH]c4nc3=O)cc2F)N1` [Compound 162], the MIC in data set [1] and in data set [3] was at most 16 µg/mL throughout. In addition, the “BW Result” value in data set [2] is “− (a “−” indicates that the rat exhibited a weight gain of less than 20%)”. The “Hematology Result” value in data set [2] is listed as “− (a “−” indicates indicates that the rat exhibited a reticulocyte count change of greater than 65%)”.

In turn, `COC[C@H](N)CCCc1cc(-c2cc3cn(-c4ccc([C@@H]5CCC[C@@H](CCNC(C)=N)N5)c(F)c4)c(=O)nc3[nH]2)c(F)c(C(F)(F)F)c1` [Compound 191] registered an MIC in data set [1] of at most 16 µg/mL. In data set [2], the “BW Result” value was “+ (a “+” in “BW result” indicates that the rat exhibited a weight gain of 20% or more)” and the “Hematology Result” value is “+ (a “+” in “Hematology result” indicates indicates that the rat exhibited a reticulocyte count change of 65% or less)”. The MIC in data set [3] was at most 16 µg/mL.

On to `CC(=N)NCC[C@@H]1CCC[C@@H](c2ccc(-n3cc4cc(-c5cc(CCC[C@H](C)N)cc(Cl)c5F)[nH]c4nc3=O)cc2F)N1` [Compound 152], for which, in data set [1], the MIC is at most 16 µg/mL. In data set [2], the “BW Result” value is listed as “+ (a “+” in “BW result” indicates that the rat exhibited a weight gain of 20% or more)” and the “Hematology Result” value was “+ (a “+” in “Hematology result” indicates indicates that the rat exhibited a reticulocyte count change of 65% or less)”. Besides, the MIC in data set [3] is at most 16 µg/mL.

As to `C=C[C@@H](N)CCCc1cc(Cl)c(F)c(-c2cc3cn(-c4ccc([C@@H]5CCC[C@@H](CCNC(C)=N)N5)cc4)c(=O)nc3[nH]2)c1` [Compound 36], the minimal inhibitory concentration (MIC) in data set [1] and in data set [3] was at most 16 µg/mL in each case. The “Hematology Result” value in data set [2] is “− (a “−” indicates indicates that the rat exhibited a reticulocyte count change of greater than 65%)”.

`C=C[C@H](N)CCCc1cc(Cl)c(F)c(-c2cc3cn(-c4ccc([C@@H]5CCC[C@@H](CCNC(C)=N)N5)c(SC)c4)c(=O)nc3[nH]2)c1` [Compound 182]: the MIC in data set [1] is at most 16 µg/mL. Besides, in data set [2], the “BW Result” value is given as “− (a “−” indicates that the rat exhibited a weight gain of less than 20%)” and the “Hematology Result” value is reported as “− (a “−” indicates indicates that the rat exhibited a reticulocyte count change of greater than 65%)”. In data set [3], the MIC was at most 16 µg/mL.

`CC(=N)NCCCN[C@@H](C)c1ccc(-n2cc3cc(-c4cc(CCC[C@H](C)N)cc(Cl)c4F)[nH]c3nc2=O)cc1` [Compound 110]: the minimum inhibitory concentration (MIC) in data set [1] and in data set [3] was at most 16 µg/mL in each case. For the same compound, the “BW Result” value in data set [2] is “− (a “−” indicates that the rat exhibited a weight gain of less than 20%)”. Further, the “Hematology Result” value in data set [2] was “− (a “−” indicates indicates that the rat exhibited a reticulocyte count change of greater than 65%)”.

In data set [1], `COC[C@H](N)CCCc1cc(-c2cc3cn(-c4ccc([C@@H]5CCC[C@@H](CCNC(C)=N)N5)cc4)c(=O)nc3[nH]2)c(F)c(C(F)(F)F)c1` [Compound 190] yielded an MIC of at most 16 µg/mL. In addition, in data set [2], the “BW Result” value is on record as “− (a “−” indicates that the rat exhibited a weight gain of less than 20%)” and the “Hematology Result” value is recorded as “− (a “−” indicates indicates that the rat exhibited a reticulocyte count change of greater than 65%)”. Further, the MIC in data set [3] was at most 16 µg/mL.

For `COC[C@H](N)CCCc1cc(OC(F)(F)F)c(F)c(-c2cc3cn(-c4ccc([C@@H]5CCC[C@@H](CCNC(C)=N)N5)c(F)c4)c(=O)nc3[nH]2)c1` [Compound 196], in data set [1], the MIC was at most 16 µg/mL. Further, in data set [2], the “BW Result” value was “+ (a “+” in “BW result” indicates that the rat exhibited a weight gain of 20% or more)” and the “Hematology Result” value is recorded as “+ (a “+” in “Hematology result” indicates indicates that the rat exhibited a reticulocyte count change of 65% or less)”. For the same compound, in data set [3], the MIC is at most 16 µg/mL.

As to `CC(=N)N[C@H](C)C[C@@H]1CCC[C@@H](c2ccc(-n3cc4cc(-c5cc(CCC[C@H](C)N)cc(Cl)c5F)[nH]c4nc3=O)cc2)N1` [Compound 254], the MIC in data set [1] and in data set [3] was at most 16 µg/mL throughout. For the same compound, the “BW Result” value in data set [2] is “+ (a “+” in “BW result” indicates that the rat exhibited a weight gain of 20% or more)”. In data set [2], the “Hematology Result” value is recorded as “+ (a “+” in “Hematology result” indicates indicates that the rat exhibited a reticulocyte count change of 65% or less)”.

Compound `CC(=N)NCC[C@@H]1CCC[C@@H](c2ccc(-n3cc4cc(-c5cc(CCC[C@H](C)N)cc(Cl)c5F)[nH]c4nc3=O)cc2)N1CCCO` [Compound 290] returned an MIC in data set [1] of at most 16 µg/mL. Further, in data set [2], the “BW Result” value was “+ (a “+” in “BW result” indicates that the rat exhibited a weight gain of 20% or more)” and the “Hematology Result” value is reported as “+ (a “+” in “Hematology result” indicates indicates that the rat exhibited a reticulocyte count change of 65% or less)”. The MIC in data set [3] is at most 16 µg/mL.
